Consider four compounds from patent publication EP0079675A1, “Oxazolidinedione derivatives” (PFIZER INC., priority 1981, dated 1983).

Assay [1] has as its target T1, aldose reductase enzyme obtained from calf lens (Bos taurus, UniProt P16116).
T1 construct: partially purified aldose reductase enzyme obtained from calf lens; from tissue; host or cells: calf lens
The assay is described as follows: inhibition of aldose reductase enzyme activity (procedure of S. Hayman et al., modified by K. Sestanj et al.). The format is biochemical. Conditions: partially purified calf lens aldose reductase, read-out: Percent Inhibition (%); for inhibition at 10 µM: 10^-5M; for inhibition at 1 µM: 10^-6M; for inhibition at 0.1 µM: 10^-7M. The protocol:
(§1) The activity of the compounds of the present invention, as agents for the control of chronic diabetic complications, is determined by their ability to successfully pass one or more of the following standard biological or pharmacological tests, viz., (1) measuring their ability to inhibit the enzyme activity of isolated aldose reductase; (2) measuring their ability to reduce or inhibit sorbitol accumulation in the sciatic nerve of acutely streptozotocinized (i.e., diabetic) rats; (3) measuring their ability to reverse already-elevated sorbitol levels in the sciatic nerve and lens of chronic streptozotocin-induced diabetic rats; (4) measuring their ability to prevent or inhibit galactitol formation in the lens of acutely galactosemic rats, and (5) measuring their ability to delay cataract formation and reduce the severity of lens opacities in chronic galactosemic rats.
The following s^piro-oxindole oxazolidinedione final products of Examples 1-4, respectively, were tested for their ability to reduce or inhibit aldose reductase enzyme activity via the procedure of S. Hayman et al., as described in the Journal of Biological Chemistry, Vol 240, p.. 877 (1965) and as modified by K. Sestanj et al. in U.S. Patent No. 3,821,383. In every case, the substrate employed was partially purified aldose reductase enzyme obtained from calf lens.

Assay [2] concerns sorbitol levels in diabetic rats. The assay is described as follows: inhibition of sorbitol formation/accumulation in diabetic rats. Format: in vivo. To be noted: oral route, dose levels ranging from 0.5 mg./kg. to 20 mg./kg.
Source text: As previously indicated, the spiro-oxindole oxazolidinedione compounds of this invention are readily adapted to therapeutic use as aldose reductase inhibitors for the control of chronic diabetic com^pli- cations, in view of their ability to reduce lens sorbitol levels in diabetic subjects to a statistically significant degree. […] Furthermore, the herein described compounds of this invention can be administered by either the oral or parenteral routes of administration. […]
as §1

As usually defined, the inhibition is the share of the control response that was lost under treatment. On to `CC(C)N1C(=O)C2(OC(=O)NC2=O)c2cc(Cl)ccc21` (centres unmarked) [Product of Example 2, 1-isopropyl-5-chloro-s^piro-[indoline-3,5'-oxazolidine]-2,2',4'-trione], for which, in assay [1], the inhibition at 10 µM was determined as 80%, the inhibition at 1 µM came out at 45% and the inhibition at 0.1 µM was 17%.
Taken in the same sequence, the figures for `O=C1NC(=O)C2(O1)C(=O)N(c1ccc(F)cc1)c1ccc(F)cc12` (centres unmarked) [Product of Example 1, 1-(p-fluorophenyl)-5-fluoro-spiro-[indoline-3,5-oxazolidine]-2,2',4'-trione] were 87%, 65% and 25%.
Regarding `O=C1NC(=O)C2(O1)C(=O)N(Cc1ccc(Cl)cc1)c1ccc(Cl)cc12` (centres unmarked) [Product of Example 4, 1-(p-chlorobenzyl)-5-chloro-spiro-(indoline-3,5'-oxazolidine]-2,2',4'-trione], the “inhibit the formation of sorbitol levels” value in assay [2] was “to a significantly high degree”. In addition, the inhibition at 100 µM in assay [1] (10^-4M) was 100%. Further, in assay [1], the inhibition at 10 µM is 89%, the inhibition at 1 µM was 81% and the inhibition at 0.1 µM turned out to be 60%.
Regarding `CN1C(=O)C2(OC(=O)NC2=O)c2cc(Cl)ccc21` (centres unmarked) [Product of Example 3], in assay [1], the inhibition at 10 µM was determined as 67%, the inhibition at 1 µM was determined as 31% and the inhibition at 0.1 µM was 10%.
